A value given as a limit tells only on which side of the number the result lay.

The record followed here is PMC9814779, “A triple farnesoid X receptor and peroxisome proliferator-activated receptor α/δ activator reverses hepatic fibrosis in diet-induced NASH in mice” (Communications Chemistry, 2020).

Data set [1] in a line: Microsomal stability assay. In kind it is in vitro ADME, rat. The conditions noted are these: 10 μM, rat liver microsomes, 37 °C; 41 n = 3, 7-EC n = 1.
Data set [2] deals with T1, human PPARα ligand-binding domain (Gal4 chimera) (Homo sapiens, UniProt Q07869).
T1 construct: coding for the hinge region and LBD of the canonical isoform of the respective nuclear receptor; expressed in transfected cells; host or cells: HEK293T
T1 sequence (Q07869 239-466 limits assumed): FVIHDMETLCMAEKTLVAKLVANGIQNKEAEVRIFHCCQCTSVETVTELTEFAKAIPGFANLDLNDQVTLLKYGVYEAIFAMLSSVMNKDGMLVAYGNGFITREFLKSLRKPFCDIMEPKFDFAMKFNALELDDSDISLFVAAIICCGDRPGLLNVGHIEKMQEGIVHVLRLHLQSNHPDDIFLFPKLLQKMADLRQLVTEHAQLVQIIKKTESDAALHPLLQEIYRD
The data set is described as follows: Gal4 hybrid reporter gene assay, PPARα. The class given is cell-based. The conditions noted are these: EC50 [μM] PPARα, HEK293T; mean ± SEM, n = 3. A general note: In a reporter assay the amount or activity of a reporter protein is the signal.

The target in data set [3] is T2, human PPARδ ligand-binding domain (Gal4 chimera) (Homo sapiens, UniProt Q03181).
T2 construct: coding for the hinge region and LBD of the canonical isoform of the respective nuclear receptor; expressed in transfected cells; host or cells: HEK293T
T2 sequence (Q03181 211-439 limits assumed): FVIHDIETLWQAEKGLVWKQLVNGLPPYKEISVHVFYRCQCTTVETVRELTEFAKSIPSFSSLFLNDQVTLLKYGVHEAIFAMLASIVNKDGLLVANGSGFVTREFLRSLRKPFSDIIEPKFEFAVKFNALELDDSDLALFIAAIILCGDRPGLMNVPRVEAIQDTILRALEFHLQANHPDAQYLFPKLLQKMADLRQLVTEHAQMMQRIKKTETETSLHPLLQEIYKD
The experiment in a line: Gal4 hybrid reporter gene assay, PPARδ. The conditions noted are these: for EC50: HEK293T, mean ± SEM, n = 3, read-out: EC50 [μM] PPARδ; for Emax: read-out: max. rel. act. PPARδ. The class given is cell-based. The arrangement: Emax: dose or concentration left out as unconfirmed.

Data set [4] has as its target T3, human PPARγ ligand-binding domain (Gal4 chimera) (Homo sapiens, UniProt P37231).
T3 construct: coding for the hinge region and LBD of the canonical isoform of the respective nuclear receptor; expressed in transfected cells; host or cells: HEK293T
T3 sequence (P37231 238-503 limits assumed): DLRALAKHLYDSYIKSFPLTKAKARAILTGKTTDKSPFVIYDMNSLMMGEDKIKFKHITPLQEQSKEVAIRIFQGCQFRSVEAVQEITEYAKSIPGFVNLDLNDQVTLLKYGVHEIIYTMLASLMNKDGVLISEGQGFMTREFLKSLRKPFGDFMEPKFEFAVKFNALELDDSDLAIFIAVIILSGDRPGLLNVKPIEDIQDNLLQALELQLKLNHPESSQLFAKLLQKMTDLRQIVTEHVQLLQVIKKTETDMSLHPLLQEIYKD
The experiment in a line: Gal4 hybrid reporter gene assay, PPARγ. The conditions noted are these: for EC50: HEK293T, mean ± SEM, n = 3, read-out: EC50 [μM] PPARγ; for Emax: read-out: max. rel. act. PPARγ. In kind it is cell-based. The arrangement: Emax: dose or concentration left out as unconfirmed.

Data set [5] has as its target T4, human FXR:retinoid X receptor (RXR) heterodimer (Homo sapiens, UniProt Q96RI1).
T4 construct: pcDNA3-hFXR[32] and pSG5-hRXR[33] served for receptor overexpression in the full-length FXR assay; expressed in transfected cells; host or cells: HeLa
The experiment in a line: Full-length FXR reporter gene assay (BSEP response element) in HeLa cells. The arrangement: Emax: dose or concentration left out as unconfirmed. The class given is cell-based. The conditions noted are these: HeLa; for Emax: read-out: max. rel. act. FXR; for EC50: mean ± SEM, n = 3, read-out: EC50 [μM] FXR.

T4 sequence (P19793 whole entry): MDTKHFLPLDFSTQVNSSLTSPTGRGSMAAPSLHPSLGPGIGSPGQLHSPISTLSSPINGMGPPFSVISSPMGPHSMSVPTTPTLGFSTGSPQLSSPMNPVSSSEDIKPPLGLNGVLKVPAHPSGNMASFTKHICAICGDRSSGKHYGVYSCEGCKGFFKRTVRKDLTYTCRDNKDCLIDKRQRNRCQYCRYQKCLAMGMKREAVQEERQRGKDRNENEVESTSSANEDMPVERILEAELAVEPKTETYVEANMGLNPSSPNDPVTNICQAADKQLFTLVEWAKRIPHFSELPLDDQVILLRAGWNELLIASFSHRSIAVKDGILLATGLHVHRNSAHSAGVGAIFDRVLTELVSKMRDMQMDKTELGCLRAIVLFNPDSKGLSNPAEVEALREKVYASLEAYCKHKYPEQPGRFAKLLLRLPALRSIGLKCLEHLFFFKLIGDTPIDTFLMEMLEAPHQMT
T4 sequence (Q96RI1 whole entry): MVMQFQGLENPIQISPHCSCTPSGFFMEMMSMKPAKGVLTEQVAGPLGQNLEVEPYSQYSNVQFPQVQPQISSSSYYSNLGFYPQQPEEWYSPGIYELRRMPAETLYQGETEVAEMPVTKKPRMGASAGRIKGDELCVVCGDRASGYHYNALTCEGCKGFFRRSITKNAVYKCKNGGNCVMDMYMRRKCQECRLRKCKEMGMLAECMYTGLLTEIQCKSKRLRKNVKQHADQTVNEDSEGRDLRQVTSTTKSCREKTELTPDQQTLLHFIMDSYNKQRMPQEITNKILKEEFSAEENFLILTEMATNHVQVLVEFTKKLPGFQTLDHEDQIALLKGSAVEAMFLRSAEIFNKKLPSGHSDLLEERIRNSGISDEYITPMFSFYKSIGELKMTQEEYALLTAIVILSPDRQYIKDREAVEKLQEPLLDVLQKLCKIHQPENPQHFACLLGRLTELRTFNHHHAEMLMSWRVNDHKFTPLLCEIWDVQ

For `CCOc1ccc2ccc(=O)oc2c1` [7-EC, 7-Ethoxycoumarin, reference compound], in data set [1], the “percent of remaining compound, 15 min” value came to 87%; the “percent of remaining compound, 30 min” value was found to be 75%; the “percent of remaining compound, 60 min” value turned out to be 55%.

For orientation: EC50 means the concentration giving half of the maximal effect. Turning to `O=C(O)CCc1cccc(NC(=O)c2ccccc2NC(=O)c2ccc(-c3cnco3)cc2)c1` [compound 38], the EC50 in data set [2] was more than 30 µM; in data set [3], 12 ± 1 µM; in data set [4], 5.3 ± 0.2 µM; in data set [5] it was 15 ± 4 µM. Moreover, the figures for the Emax in data set [3], in data set [4] and in data set [5] were 32%, 16% and 53%, respectively.

Consider `O=C(O)CCc1cccc(NC(=O)c2ccccc2NC(=O)c2ccc(-n3ccnn3)cc2)c1` [compound 39], for which the EC50 was more than 10 µM in data set [2], more than 10 µM in data set [3], more than 30 µM in data set [4] and more than 10 µM in data set [5].

For the compound `COc1ccc(C(=O)Nc2cccc(NCC(=O)O)c2)c(NC(=O)c2ccc(-c3ccoc3)cc2)c1` [compound 40, (3-[2-{4-(3-Furyl)benzamido}-4-methoxybenzamido]phenyl)glycine], the EC50 in data set [2] is more than 30 µM; in data set [3], 1.6 ± 0.1 µM; in data set [4] it was 7.7 ± 0.5 µM; in data set [5] it was 0.29 ± 0.01 µM. The results for the Emax in data set [3], in data set [4] and in data set [5] were 54%, 9% and 43%, respectively.
